Test results taken from US20260176282A1, “BICYCLIC COMPOUNDS AS CDK INHIBITORS” (BEONE MEDICINES I GMBH, priority 2023, published 2026).
Like-named read-outs stand apart in the source and are kept apart here.

Tests used:
CDK2/Cyclin E1 [1] = target: T1, CDK2/Cyclin E1 (Homo sapiens, UniProt P24941); assay: CDK2/Cyclin E1 TR-FRET biochemical assay (0.060 mM ATP); conditions: 120 minutes reaction
Description: (§1) Compounds disclosed herein were tested for inhibition of CDK2/Cyclin E1 or CDK1/Cyclin B1 kinase in an assay based on the time-resolved fluorescence-resonance energy transfer (TR-FRET) methodology. The assay was carried out in 384-well low volume black plates in a reaction mixture containing CDK2/Cyclin E1 or CDK1/Cyclin B1, 0.060 mM ATP for CDK2/Cyclin E1 or 0.015 mM ATP for CDK1/Cyclin B1, 0.15 μM Rb (Ser780)-biotin substrate and 0-10 μM compound in buffer containing 50 mM HEPES pH7.0, 0.02% NaN3, 0.01% BSA, 0.1 mM Orthovanadate, 50 mM MgCl2, 1 mM DTT and 0.005% Tween-20. The kinase was incubated with compound for 60 minutes at room temperature and the reaction was initiated by the addition of ATP and Rb (Ser780)-biotin substrate. After reaction at room temperature for 120 minutes, an equal volume of stop/detection solution was added according to the manufacture's instruction (Cisbio Bioassays). The stop/detection solution contained Streptavidin-XL665 and Anti-pRb (Ser780) mAb-Eu Cryptate in Detection buffer (Cisbio Bioassays). Plates were incubated at room temperature for 60 minutes, and the TR-FRET signals (ex337 nm, em665 nm/620 nm) were recorded on a PHERAstar FSX plate reader (BMG Labtech). The inhibition percentage of CDK2/Cyclin E1 or CDK1/Cyclin B1 kinase activity in presence of increasing concentrations of compounds was calculated based on the ratio of fluorescence at 665 nm to that at 620 nm. The IC50 for each compound was derived from fitting the data to the four-parameter logistic equation by Dotmatics.

CDK1/Cyclin B1 [2] = target: T2, CDK1/Cyclin B1 (Homo sapiens, UniProt P06493); assay: CDK1/Cyclin B1 TR-FRET biochemical assay (0.015 mM ATP); conditions: 120 minutes reaction
T2 sequence (P06493 whole entry): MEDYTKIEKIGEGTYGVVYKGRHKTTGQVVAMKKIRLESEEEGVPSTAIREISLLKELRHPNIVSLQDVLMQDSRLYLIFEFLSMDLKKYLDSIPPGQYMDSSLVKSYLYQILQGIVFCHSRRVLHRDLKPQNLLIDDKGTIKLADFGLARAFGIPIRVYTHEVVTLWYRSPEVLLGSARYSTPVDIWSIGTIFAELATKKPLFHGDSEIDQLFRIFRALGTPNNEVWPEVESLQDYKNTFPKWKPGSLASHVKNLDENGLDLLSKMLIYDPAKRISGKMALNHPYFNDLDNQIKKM
T2 sequence (P14635 whole entry partner): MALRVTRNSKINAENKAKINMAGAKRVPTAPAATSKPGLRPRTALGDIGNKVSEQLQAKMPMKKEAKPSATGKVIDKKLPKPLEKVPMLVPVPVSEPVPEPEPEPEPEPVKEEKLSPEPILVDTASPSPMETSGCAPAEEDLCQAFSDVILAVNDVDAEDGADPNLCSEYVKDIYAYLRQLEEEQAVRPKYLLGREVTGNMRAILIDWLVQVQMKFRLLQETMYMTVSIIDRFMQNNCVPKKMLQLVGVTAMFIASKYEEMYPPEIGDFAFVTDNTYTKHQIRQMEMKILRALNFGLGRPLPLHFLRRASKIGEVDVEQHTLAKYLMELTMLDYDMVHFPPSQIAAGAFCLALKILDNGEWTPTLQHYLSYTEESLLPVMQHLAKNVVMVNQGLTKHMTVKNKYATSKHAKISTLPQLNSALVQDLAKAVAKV
Description: as §1

HEK-293 cells = assay: HEK-293 cell cytotoxicity detection (CellTiter-Glo); type: cell-based; conditions: incubation of 72 h, CellTiter-Glo luminescence
Description: HEK-293 cells were treated with compounds diluted in 0.4% DMSO, dilution was done according to the following protocol: (1) making 250× stock solution in DMSO from 10 mM by 4-fold dilution, total 8 doses were included; (2) making 2 solution in cell culture medium by transferring 1 μl 250× stock solution into 124 μl medium; (3) adding 50 μl of 2× solution to cells for incubation of 72 h.
25 μl of the CellTiter-Glo® Reagent [(PromegaCat #G9242)] was added to each well in the 96-well plate. The contents were mixed for 2 minutes on an orbital shaker to induce cell lysis. The plate was then allowed to incubate at room temperature for 10 minutes to stabilize luminescent signal. Luminescence was recorded on BMG PheraStar with luminescence protocol.
The IC50 value of a compound can be obtained by fitting the following equation: […]
Wherein, X and Y are known values, and IC50, Hillslope, Top and Bottom are the parameters obtained by fitting with software. Y is the inhibition percentage (calculated from the equation), X is the concentration of the compound; IC50 is the concentration of the compound when the 50% inhibition is reached. The smaller the IC50 value is, the stronger the inhibitory ability of the compound is. Vice versa, the higher the IC50 value is, the weaker the ability the inhibitory ability of the compound is; Hillslope represents the slope of the fitted curve, generally around 1*; Bottom represents the minimum value of the curve obtained by data fitting, which is generally 0%±20%; Top represents the maximum value of the curve obtained by data fitting, which is generally 100%±20%. The experimental data were fitted by calculating and analyzing with Dotmatics data analysis software.

CDK2/Cyclin E1 [3] = target: T1, CDK2/Cyclin E1; assay: CDK2/Cyclin E1 TR-FRET biochemical assay (1 mM ATP); conditions: 90 minutes reaction
Description: as §1, with “1” for “0.060”, “and” for “or 0.015 mM ATP for”, “90” for “120”

CDK1/Cyclin B1 [4] = target: T2, CDK1/Cyclin B1; assay: CDK1/Cyclin B1 TR-FRET biochemical assay (1 mM ATP); conditions: 90 minutes reaction
Description: as §1, with “1” for “0.060”, “and” for “or 0.015 mM ATP for”, “90” for “120”

Row | Structure (SMILES) | IC50 (CDK2/Cyclin E1 [1]) [µM] | IC50 (CDK1/Cyclin B1 [2]) [µM] | IC50 (CDK2/Cyclin E1 [3]) [µM] | IC50 (CDK1/Cyclin B1 [4]) [µM] | IC50 (HEK-293 cells; Homo sapiens, HEK293, 72 h) [µM] | IC50 (HEK-293 cells; read-out: HEK293 IC50) [µM]
1 | CC(C)NC(=O)O[C@H]1CC[C@@H](c2cc(Nc3cc4c(cc3F)S(=O)(=O)CC4)n[nH]2)C1 (relative stereo) [Example 1, cis-3-(3-((6-fluoro-1,1-dioxido-2,3-dihydrobenzo[b]thiophen-5-yl)amino)-1H-pyrazol-5-yl)cyclopentyl isopropylcarbamate] | 0.049 | 1.14 | – | – | > 10 | –
2 | CCCNC(=O)O[C@H]1CC[C@@H](c2cc(Nc3ccc4c(c3F)S(=O)(=O)CC4)n[nH]2)C1 (relative stereo) [Example 4, cis-3-(3-((7-fluoro-1,1-dioxido-2,3-dihydrobenzo[b]thiophen-6-yl)amino)-1H-pyrazol-5-yl)cyclopentyl propylcarbamate] | 0.017 | 0.191 | – | – | 8.59 | –
3 | CC1(NC(=O)O[C@H]2CC[C@@H](c3cc(Nc4ccc5c(c4F)S(=O)(=O)CC5)n[nH]3)C2)CC1 (relative stereo) [Example 6, cis-3-(3-((7-fluoro-1,1-dioxido-2,3-dihydrobenzo[b]thiophen-6-yl)amino)-1H-pyrazol-5-yl)cyclopentyl (1-methylcyclopropyl)carbamate] | 0.0011 | 0.02 | – | – | 0.44 | –
4 | CC(C)NC(=O)O[C@H]1CC[C@@H](c2cc(Nc3ccc4c(c3)CS(=O)(=O)C4)n[nH]2)C1 (relative stereo) [Example 7, cis-3-(3-((2,2-dioxido-1,3-dihydrobenzo[c]thiophen-5-yl)amino)-1H-pyrazol-5-yl)cyclopentyl isopropylcarbamate] | 0.0011 | 0.012 | – | – | 0.684 | –
5 | CC1(NC(=O)OC2CCC(c3cc(Nc4ccc5c(c4F)CS(=O)(=O)C5)n[nH]3)C2)COC1 (single isomer, unassigned) [Example 15b, cis-3-(3-((4-fluoro-2,2-dioxido-1,3-dihydrobenzo[c]thiophen-5-yl)amino)-1H-pyrazol-5-yl)cyclopentyl (3-methyloxetan-3-yl)carbamate] | – | – | 0.002 | 0.505 | – | 9.9
6 | CCNC(=O)OC1CCC(c2cc(Nc3ccc4c(c3F)CS(=O)(=O)C4)n[nH]2)C1 (single isomer, unassigned) [Example 18a, cis-3-(3-((4-fluoro-2,2-dioxido-1,3-dihydrobenzo[c]thiophen-5-yl)amino)-1H-pyrazol-5-yl)cyclopentyl ethylcarbamate] | – | – | 0.0052 | 1.3 | – | > 10
7 | CCNC(=O)OC1CCC(c2cc(Nc3ccc4c(c3F)CS(=O)(=O)C4)n[nH]2)C1 (single isomer, unassigned) [Example 18b, cis-3-(3-((4-fluoro-2,2-dioxido-1,3-dihydrobenzo[c]thiophen-5-yl)amino)-1H-pyrazol-5-yl)cyclopentyl ethylcarbamate] | – | – | 0.0052 | 0.555 | – | 0.522
8 | O=C(NC1CCOC1)OC1CCC(c2cc(Nc3ccc4c(c3F)CS(=O)(=O)C4)n[nH]2)C1 (single isomer, unassigned) [Example 24a, cis-3-(3-((4-fluoro-2,2-dioxido-1,3-dihydrobenzo[c]thiophen-5-yl)amino)-1H-pyrazol-5-yl)cyclopentyl (tetrahydrofuran-3-yl)carbamate] | – | – | 0.017 | 4.73 | > 10 | –
9 | O=C(NC1CCOC1)OC1CCC(c2cc(Nc3ccc4c(c3F)CS(=O)(=O)C4)n[nH]2)C1 (single isomer, unassigned) [Example 24b, cis-3-(3-((4-fluoro-2,2-dioxido-1,3-dihydrobenzo[c]thiophen-5-yl)amino)-1H-pyrazol-5-yl)cyclopentyl (tetrahydrofuran-3-yl)carbamate] | – | – | 0.061 | 7.87 | – | > 10
10 | O=C(N[C@H]1CC[C@@H](O)CC1)OC1CCC(c2cc(Nc3ccc4c(c3F)CS(=O)(=O)C4)n[nH]2)C1 (stereo partly drawn) [Example 17, cis-3-(3-((4-fluoro-2,2-dioxido-1,3-dihydrobenzo[c]thiophen-5-yl)amino)-1H-pyrazol-5-yl)cyclopentyl ((1s,4s)-4-hydroxycyclohexyl)carbamate] | – | – | 0.0023 | 0.824 | 0.991 | –

More lines, main results first:

Row | IC50 (CDK2/Cyclin E1 [1]) [µM] | IC50 (CDK1/Cyclin B1 [2]) [µM] | IC50 (CDK2/Cyclin E1 [3]) [µM] | IC50 (CDK1/Cyclin B1 [4]) [µM] | Structure (SMILES) | IC50 (HEK-293 cells; Homo sapiens, HEK293, 72 h) [µM] | IC50 (HEK-293 cells; read-out: HEK293 IC50) [µM]
11 | – | – | 0.0009 | 0.322 | CC1(NC(=O)OC2CCC(c3cc(Nc4ccc5c(c4F)CS(=O)(=O)C5)n[nH]3)C2)CCOC1 (single isomer, unassigned) [Example 13d, cis-3-(3-((4-fluoro-2,2-dioxido-1,3-dihydrobenzo[c]thiophen-5-yl)amino)-1H-pyrazol-5-yl)cyclopentyl (3-methyltetrahydrofuran-3-yl)carbamate] | – | 4.21
12 | – | – | 0.0019 | 1.09 | CC1(NC(=O)OC2CCC(c3cc(Nc4ccc5c(c4F)CS(=O)(=O)C5)n[nH]3)C2)COC1 (single isomer, unassigned) [Example 15a, cis-3-(3-((4-fluoro-2,2-dioxido-1,3-dihydrobenzo[c]thiophen-5-yl)amino)-1H-pyrazol-5-yl)cyclopentyl (3-methyloxetan-3-yl)carbamate] | > 10 | –
13 | – | – | 0.0018 | 0.768 | C[C@]1(O)CC[C@@H](NC(=O)OC2CCC(c3cc(Nc4ccc5c(c4F)CS(=O)(=O)C5)n[nH]3)C2)CC1 (stereo partly drawn) [Example 25, cis-3-(3-((4-fluoro-2,2-dioxido-1,3-dihydrobenzo[c]thiophen-5-yl)amino)-1H-pyrazol-5-yl)cyclopentyl ((1s,4s)-4-hydroxy-4-methylcyclohexyl)carbamate] | 1.13 | –
14 | – | – | 0.0015 | 0.376 | O=C(N[C@H]1CC[C@H](O)CC1)OC1CCC(c2cc(Nc3ccc4c(c3F)CS(=O)(=O)C4)n[nH]2)C1 (stereo partly drawn) [Example 26, cis-3-(3-((4-fluoro-2,2-dioxido-1,3-dihydrobenzo[c]thiophen-5-yl)amino)-1H-pyrazol-5-yl)cyclopentyl ((1r,4r)-4-hydroxycyclohexyl)carbamate] | 0.998 | –
15 | – | – | 0.0011 | 1.18 | C[C@]1(O)CC[C@H](NC(=O)OC2CCC(c3cc(Nc4ccc5c(c4F)CS(=O)(=O)C5)n[nH]3)C2)CC1 (stereo partly drawn) [Example 34, cis-3-(3-((4-fluoro-2,2-dioxido-1,3-dihydrobenzo[c]thiophen-5-yl)amino)-1H-pyrazol-5-yl)cyclopentyl ((1r,4r)-4-hydroxy-4-methylcyclohexyl)carbamate] | 1.43 | –
